The text below walks through data of US8940770B2, “Nitropyridinyl ethyleneimine compound, the pharmaceutical composition containing it, the preparation method and use thereof” (Beijing Yiling Bioengineering Co., Ltd, priority 2008, dated 2015).

Like-named read-outs stand apart in the source and are kept apart here.

For series [1], the system named is human non-small cell lung cancer cell line A549. The series can be described thus: SRB cell viability assay, wild-type A549, normoxic and hypoxic drug treatment. The following applies: for IC50: Homo sapiens, 4 h drug treatment, then 4 days normoxic culture, SRB, mean ± SD; for HCR O2/N2 (WT): wild-type A549, HCR = IC50 in normoxia/IC50 in hypoxia. The format is cell-based. The procedure:
(§1) Tumor cell strain: human non-small cell lung cancer cell line A549.
(§2) Reagent system: SRB, transfection kit
(§3) The cell strains/the cypor transfected cell strains were subject to normoxic and hypoxic cultivations respectively. Then, the cell vitality was analyzed by SRB assay and IC50 values were calculated. At last, the ratio of IC50 values in normoxia and in hypoxia (hypoxic cytotoxicity ratio, HCR) was calculated.
(§4) Both the human non-small cell lung cancer cell line A549 and the cypor transfected cell strains were cultivated in F12 cultivation medium containing 10% fetal bovine serum at 37° C. and in 5% CO2
(§5) The concentration gradient for the drug was set as 10^−3, 10^−4, 10^−5, 10^−6, and 10^−7 mol/L.
(§6) The crystallized powder of the active ingredient was dissolved in DMSO and formulated into a stock solution having a concentration which was 100 times of the maximal administrated concentration of the drug. The administrated concentrations of the drug could be prepared by directly diluting the stock solution with the corresponding serum-free cultivation medium.
(§7) the stock solution was stored at −80° C. in a refrigerator and the solutions of the drug to be administrated were prepared immediately before use.
(§8) The cell in the exponential growth phase was adjusted to a cell density of 1.0×10^5/ml and seeded into a 96-well plate at 100 μl per well. The drug was added under the normoxic and hypoxic condition respectively, according to the experimental grouping, and each of treatments using the drug lasted for 4 h.
(§9) After treatment using the drug was completed, the treated cells were normally cultivated under a normoxic condition for 4 days and then the cell survival rate was assayed by SRB. IC50 was calculated according to the equation of Lg IC50=Σ(Xi+Xi+1)(Pi+1−Pi)/2. Hypoxia cytotoxicity ratio (HCR) was obtained through dividing IC50 value in normoxia by IC50 value in hypoxia. The greater the HCR value is, the stronger the hypoxic selectivity of the drug will be.
(§10) All of the data were statistically analyzed using the software SPSS 11.5, the results were expressed as a mean±standard deviation ( X±SD), the inter-group difference was tested with the program One-Way ANOVA, P<0.05 means a statistically significant difference.

Series [2] relates to A549 transfected with human cytochrome P450 reducease (CYPOR). The series can be described thus: cells. To be noted: for IC50: Homo sapiens. The format is cell-based. How it is done: as §1, §2, §3, §4, §5, §6, §7, §8, §9, §10
Setting [3] is: wild-type A549, hypoxia (N2), read-out: IC50 N2 (WT).
The mark [4] stands for this setting: wild-type A549, normoxia (O2), read-out: IC50 O2 (WT).
Where [5] appears, read: A549, read-out: IC50 N2 (CYPOR).
The mark [6] stands for this setting: A549, read-out: IC50 O2 (CYPOR).

As usually defined, the IC50 is the concentration at which inhibition is half-maximal. A word on the melting point: it is the temperature, or range, at which the solid turns liquid. In the case of `NC(=O)c1cc(N2CC2)ncc1[N+](=O)[O-]` [Compound VI, 2-(1-ethyleneimine)-4-carbamoyl-5-nitropyridine], the melting point is 170 °C (dec.). In addition, the half-maximal inhibitory concentration (IC50) in series [1] (setting [3]) was 5.5 ± 1.6 µM. The IC50 in series [1] (setting [4]) came to 137 ± 7.34 µM. In series [1], the “HCR O2/N2 (WT)” value was 25.0 ± 5.71. Also, the “HCR O2/N2 (CYPOR)” value in series [2] was found to be 108.7 ± 8.88. For the same compound, the IC50 in series [2] (setting [5]) was 1.1 ± 0.16 µM. The IC50 in series [2] (setting [6]) was found to be 120 ± 6.48 µM.

As for `NC(=O)c1cnc(N2CC2)c([N+](=O)[O-])c1` [Compound III, 2-(1-ethyleneimine)-5-carbamoyl-3-nitropyridine], the melting point was 150 °C (dec.). Further, the IC50 in series [1] (setting [3]) was determined as 13.5 ± 3.2 µM. In addition, the IC50 in series [1] (setting [4]) stood at 257 ± 4.83 µM. Further, the “HCR O2/N2 (WT)” value in series [1] is listed as 19.0 ± 3.91. Besides, the “HCR O2/N2 (CYPOR)” value in series [2] stood at 62.0 ± 8.32. Moreover, the IC50 in series [2] (setting [5]) came out at 2.3 ± 0.27 µM. Moreover, the IC50 in series [2] (setting [6]) was 143 ± 9.96 µM.

`NC(=O)c1cc([N+](=O)[O-])cnc1N1CC1` [Compound IV, 2-(1-ethyleneimine)-3-carbamoyl-5-nitropyridine]: the melting point was 160 °C (dec.). Also, the IC50 in series [1] (setting [3]) was 56.6 ± 7.17 µM. Further, the half-inhibitory concentration (IC50) in series [1] (setting [4]) was 317.2 ± 2.79 µM. The “HCR O2/N2 (WT)” value in series [1] amounted to 5.6 ± 2.73. The “HCR O2/N2 (CYPOR)” value in series [2] turned out to be 21.3 ± 4.56. Moreover, the IC50 in series [2] (setting [5]) amounted to 9.3 ± 3.2 µM. Moreover, the IC50 in series [2] (setting [6]) turned out to be 198 ± 24.9 µM.

As for `NC(=O)c1ccc([N+](=O)[O-])c(N2CC2)n1` [Compound V, 2-(1-ethyleneimine)-6-carbamoyl-3-nitropyridine], the melting point was 170 °C (dec.). Besides, the IC50 in series [1] (setting [3]) was 9.4 ± 2.65 µM. Besides, the IC50 in series [1] (setting [4]) was found to be 79.3 ± 4.77 µM. The “HCR O2/N2 (WT)” value in series [1] came out at 8.4 ± 3.56. Also, the “HCR O2/N2 (CYPOR)” value in series [2] is listed as 35.9 ± 9.15. In addition, the IC50 in series [2] (setting [5]) came out at 1.7 ± 0.38 µM. Also, in series [2] (setting [6]), the IC50 stood at 61 ± 7.11 µM.

With `NC(=O)c1ccnc(N2CC2)c1[N+](=O)[O-]` [Compound II, 2-(1-ethyleneimine)-4-carbamoyl-3-nitropyridine], the melting point is 170 °C (dec.). Moreover, the 50% inhibitory concentration (IC50) in series [1] (setting [3]) is 15.5 ± 2.67 µM. Moreover, the IC50 in series [1] (setting [4]) came out at 198 ± 5.04 µM. In series [1], the “HCR O2/N2 (WT)” value was 12.8 ± 2.87. In addition, the “HCR O2/N2 (CYPOR)” value in series [2] amounted to 52.5 ± 3.51. The IC50 in series [2] (setting [5]) came out at 2.7 ± 0.58 µM. Further, in series [2] (setting [6]), the IC50 came to 142 ± 10.1 µM.
